Patent US20160145247A1, “Aminomethyl-Biaryl Derivatives Complement Factor D inhibitors and uses thereof” (NOVARTIS AG, priority 2013, published 2016)

Target: T1, factor D (Homo sapiens, UniProt P00746)
T1 construct: made in house; host or cells: E. coli
Test: factor D inhibition assay of Biological Example 2
Format: biochemical

T1 sequence (P00746 26-253): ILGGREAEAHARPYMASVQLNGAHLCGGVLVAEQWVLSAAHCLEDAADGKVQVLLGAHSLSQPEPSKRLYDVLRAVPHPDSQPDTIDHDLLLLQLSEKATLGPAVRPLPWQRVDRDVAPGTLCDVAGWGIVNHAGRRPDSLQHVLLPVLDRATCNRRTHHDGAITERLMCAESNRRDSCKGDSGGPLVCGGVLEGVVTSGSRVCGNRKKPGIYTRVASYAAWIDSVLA

SMILES | IC50 [nM]
CCOC(=O)Cc1ccccc1NC(=O)c1cc(NC[C@H]2CCCO2)cc(-c2cc(F)cc(CN)c2)c1 [Example 85, (R)-Ethyl 2-(2-(3′-(aminomethyl)-5′-fluoro-5-(((tetrahydrofuran-2-yl)methyl)amino)-[1,1′-biphenyl]-3-ylcarboxamido)phenyl)acetate] | 709
COC(C)c1cc(COc2ccccc2CC(=O)O)cc(-c2cccc([C@H](N)CF)c2)c1 (mixture of isomers) [Example 121-C, 2-(2-((3′-((S)-1-Amino-2-fluoroethyl)-5-(1-methoxyethyl)-[1,1′-biphenyl]-3-yl)methoxy)phenyl)acetic acid] | 380
COc1ccc(-c2cccc([C@@H](C)N)c2F)cc1COc1ccccc1CC(=O)O [Example 276, (R)-2-(2-((3′-(1-aminoethyl)-2′-fluoro-4-methoxy-[1,1′-biphenyl]-3-yl)methoxy)phenyl)acetic acid] | 160
C[C@@H](N)c1cccc(-c2cc(COc3ccccc3CC(=O)O)c3c(c2)OCO3)c1 [Example 254, (R)-2-(2-((6-(3-(1-aminoethyl)phenyl)benzo[d][1,3]dioxol-4-yl)methoxy)phenyl)acetic acid] | 32
C[C@@H]1CN(Cc2cc(COc3ccccc3CC(=O)O)cc(-c3cccc([C@@H](C)N)c3F)c2)C[C@H](C)O1 [Example 216-AH] | 90
C[C@@H](N)c1cccc(-c2cc(COc3ccccc3CC(=O)O)cc(OC[C@H]3CCCO3)c2)n1 [Example 235, 2-(2-((3-(6-((R)-1-aminoethyl)pyridin-2-yl)-5-(((R)-tetrahydrofuran-2-yl)methoxy)benzyl)oxy)phenyl)acetic acid] | 34
CCC[C@@H](N)c1cccc(-c2cccc(COc3ccccc3CC(=O)O)c2)c1 [Example 190-E] | 34
NCc1cc(F)cc(-c2cccc(C(=O)Nc3cc(Br)ccc3CC(=O)O)c2)c1 [Example 21-A] | 414
CCC[C@@H](N)c1cc(-c2cccc(COc3ccccc3CC(=O)O)c2)ccn1 [Example 196-B] | 206
CCC[C@@H](N)c1cccc(-c2cc(CO)cc(COc3ccccc3CC(=O)O)c2)c1 [Example 117-B, (R)-2-(2-((3′-(1-Aminobutyl)-5-(hydroxymethyl)-[1,1′-biphenyl]-3-yl)methoxy)phenyl)acetic acid] | 83
CC(O)c1cc(COc2ccccc2CC(=O)O)cc(-c2cccc([C@H](C)N)c2F)c1 (stereo partly shown) [Example 120-J] | 23
C[C@@H](N)c1cccc(-c2cc(COc3ccccc3CC(=O)O)cc(S(C)(=O)=O)c2)c1 [Example 251, (R)-2-(2-((3′-(1-aminoethyl)-5-(methylsulfonyl)-[1,1′-biphenyl]-3-yl)methoxy)phenyl)acetic acid] | 158
C[C@H](O)[C@@H](N)c1cccc(-c2cccc(COc3ccccc3CC(=O)O)c2)c1 [Example 190-D] | 981
NCc1cccc(-c2ccc3c(c2)C(Oc2ccccc2CC(=O)O)CCO3)c1 (single isomer, unassigned) [177 b) (tr = 8.8 min), (−) or (+)-2-(2-((6-(3-(aminomethyl)phenyl)chroman-4-yl)oxy)phenyl)acetic acid] | 180
C[C@@H](N)c1cccc(-c2cc(COc3ccccc3CC(=O)O)cc(COC3CCOc4ccc(Cl)cc43)c2)c1F (stereo partly shown) [Example 120-S] | 21
Cc1cccc(CC(=O)O)c1NC(=O)c1cccc(-c2cc(F)cc(CN)c2)c1 [Example 21-C] | 109
CCc1cc(COc2ccccc2CC(=O)O)cc(-c2cccc([C@H](N)CO)c2)c1 [Example 110-C, (S)-2-(2-((3′-(1-Amino-2-hydroxyethyl)-5-ethyl-[1,1′-biphenyl]-3-yl)methoxy)phenyl)acetic acid] | 30
C[C@@H](N)c1cccc(-c2cc(COc3ccccc3CC(=O)O)cc(CN3CCCC3)c2)c1F [Example 216-AJ] | 460
NCc1ccc(F)c(-c2cccc(C(=O)Nc3ccccc3CC(=O)O)c2)c1 [Example 4-B, 2-(2-(5′-(Aminomethyl)-2′-fluoro-[1,1′-biphenyl]-3-ylcarboxamido)phenyl)acetic acid] | 4600
NCc1cc(F)cc(-c2cc(O)cc(C(=O)Nc3ccccc3CC(=O)O)c2)c1 [Example 60, 2-(2-(3′-(Aminomethyl)-5′-fluoro-5-hydroxy-[1,1′-biphenyl]-3-ylcarboxamido)phenyl)acetic acid] | 47
O=C(O)Cc1ccccc1OCc1cccc(-c2cccc(-c3ncc[nH]3)c2)c1 [Example 138-F] | 2190
C[C@@H](N)c1cccc(-c2cccc(COc3ccccc3CC(=O)O)c2)n1 [Example 138-I] | 301

These reach a lower IC50. Values come first.

IC50 [nM] | SMILES
20 | C[C@@H](N)c1cccc(-c2cc(CNC3CC3)cc(COc3ccccc3CC(=O)O)c2)c1F [Example 216-AD]
17 | C[C@@H](N)c1cccc(-c2cc(NC[C@H]3CCCO3)c3c(c2)C(Oc2ccccc2CC(=O)O)CCO3)c1F (stereo partly shown) [Example 216-W]
16 | CNc1sc(-c2cc(F)cc(CN)c2)nc1C(=O)Nc1ccccc1CC(=O)O [Example 31-B, 2-(2-(2-(3-(aminomethyl)-5-fluorophenyl)-5-(methylamino)thiazole-4-carboxamido)phenyl)acetic acid]
15 | C[C@@H](N)c1cccc(-c2cc(COc3ccccc3CC(=O)O)cc(OCC3CCCCO3)c2)c1F (stereo partly drawn) [Example 264, 2-(2-((3′-((R)-1-aminoethyl)-2′-fluoro-5-((tetrahydro-2H-pyran-2-yl)methoxy)-[1,1′-biphenyl]-3-yl)methoxy)phenyl)acetic acid]
14 | C[C@@H](N)c1cccc(-c2cc(COc3ccccc3CC(=O)O)cc(NCC3CC3(F)F)c2)c1F (stereo partly drawn) [Example 281-E, 2-(2-((3′-((R)-1-Aminoethyl)-5-(((2,2-difluorocyclopropyl)methyl)amino)-2′-fluoro-[1,1′-biphenyl]-3-yl)methoxy)phenyl)acetic acid]
14 | NCc1cc(F)cc(-c2cc(NC3CCOCC3)cc(C(=O)Nc3ccccc3CC(=O)O)c2)c1 [Example 79-D]
13 | C[C@@H](N)c1cccc(-c2cc(NCC3CC3)c3c(c2)C(Oc2ccccc2CC(=O)O)CCC3)c1F (stereo partly shown) [Example 216-Z]
11 | C[C@@H](N)c1cccc(-c2cc(CCC3CCCC3)cc(COc3ccccc3CC(=O)O)c2)c1F [Example 237, (R)-2-(2-((3′-(1-aminoethyl)-5-(2-cyclopentylethyl)-2′-fluoro-[1,1′-biphenyl]-3-yl)methoxy)phenyl)acetic acid]
10 | COCCNc1cc(C(=O)Nc2ccccc2CC(=O)O)cc(-c2cc(F)cc(CN)c2)c1 [Example 14-E]
9 | C[C@@H](N)c1cccc(-c2cc(CCC3CCCO3)cc(COc3ccccc3CC(=O)O)c2)c1F (stereo partly drawn) [Example 236-C, 2-(2-((3′-((R)-1-aminoethyl)-2′-fluoro-5-(2-(tetrahydrofuran-2-yl)ethyl)-[1,1′-biphenyl]-3-yl)methoxy)phenyl)acetic acid]
9 | C[C@@H](N)c1cccc(-c2cc(COc3ccccc3CC(=O)O)cc(NCc3ccccn3)c2)c1F [Example 216-T]
9 | CC(O)c1cc(COc2ccccc2CC(=O)O)cc(-c2cccc([C@H](N)CO)c2)c1 (mixture of isomers) [116-E a), 2-(2-((3′-((S)-1-amino-2-hydroxyethyl)-5-(1-hydroxyethyl)-[1,1′-biphenyl]-3-yl)methoxy)phenyl)acetic acid]
9 | CCNc1cc(COc2ccccc2CC(=O)O)cc(-c2cccc([C@H](N)CO)c2)c1 [Example 129, (S)-2-(2-((3′-(1-Amino-2-hydroxyethyl)-5-(ethylamino)-[1,1′-biphenyl]-3-yl)methoxy)phenyl)acetic acid]
9 | CCOc1cc(COc2ccccc2CC(=O)O)cc(-c2cccc([C@@H](C)N)c2)c1 [Example 257, (R)-2-(2-((3′-(1-aminoethyl)-5-ethoxy-[1,1′-biphenyl]-3-yl)methoxy)phenyl)acetic acid]
7 | C[C@@H](N)c1cccc(-c2cc(COc3ccccc3CC(=O)O)cc(N(C)CC3CCCO3)c2)c1F (stereo partly shown) [Example 216-G]
6 | NCc1cccc(-c2cccc(COc3ccccc3C(NC(=O)C3CC3c3ccccc3)C(=O)O)c2)c1 (single isomer, unassigned) [Example 297-B, 2-(2-((3′-(aminomethyl)-[1,1′-biphenyl]-3-yl)methoxy)phenyl)-2-(2-phenylcyclopropanecarboxamido)acetic acid]
6 | CN(Cc1cc(COc2ccccc2CC(=O)O)cc(-c2cccc(CN)c2)c1)CC(F)(F)F [Example 208-G]
5 | N[C@H](CO)c1cccc(-c2cc(COc3ccccc3CC(=O)O)cc(OCC3CC3)c2)c1 [Example 147-B, (S)-2-(2-((3′-(1-Amino-2-hydroxyethyl)-5-(cyclopropylmethoxy)-[1,1′-biphenyl]-3-yl)methoxy)phenyl)acetic acid]
5 | NCc1cccc(-c2cc(COc3ccccc3CC(=O)O)cc(OC[C@H]3CCCO3)c2)c1 [Example 135, (R)-2-(2-((3′-(Aminomethyl)-5-((tetrahydrofuran-2-yl)methoxy)-[1,1′-biphenyl]-3-yl)methoxy)phenyl)acetic acid]
5 | C[C@@H](N)c1cccc(-c2cc(COc3ccccc3CC(=O)O)cc(NC3CCCC3)c2)c1F [Example 216-U]
3 | C[C@@H](N)c1cccc(-c2cc(COc3ccccc3CC(=O)O)cc(-c3cnn(C)c3)c2)c1F [Example 230, (R)-2-(2-((3′-(1-aminoethyl)-2′-fluoro-5-(1-methyl-1H-pyrazol-4-yl)-[1,1′-biphenyl]-3-yl)methoxy)phenyl)acetic acid]
3 | N[C@H](CO)c1cccc(-c2cc(F)cc(COc3ccccc3CC(=O)O)c2)c1 [Example 115-A]
2 | NCc1nccc(-c2cccc(COc3ccccc3CC(=O)O)c2)c1F [Example 142-I]
2 | Cc1ccc(S(=O)(=O)n2ncc3c(COc4ccccc4CC(=O)O)cc(-c4cccc(CN)c4)cc32)cc1 [Example 178, 2-(2-((6-(3-(Aminomethyl)phenyl)-1-tosyl-1H-indazol-4-yl)methoxy)phenyl)acetic acid]
